Data taken from patent US11186573B2, “Inhibitors of ROR gamma” (Vitae Pharmaceuticals, LLC, priority 2017, dated 2021).
Entries after “also recorded” stand apart in the source; their conditions may differ. Structures can show the parent of a compound that is named as a salt. Blank lines part the entries; values can stand above or below the molecule they belong to.

Key:
Assay type in all cases: physicochemical
[1] = Oxidation/degradation during salt screening and salt preparation; conditions: for degradation during preparation: salt preparation / air-drying
Experimental: A salt/co-crystal screening was conducted under 127 conditions with 20 salt/co-crystal co-formers and seven solvent systems. For each condition, approximately 20 mg of Compound 1 was dispersed in the selected solvent in a glass vial and then salt/co-crystal co-former was added. Observation of slurries were followed by isolation and analysis of the resulting solids. Even though some crystalline solids were isolated and analyzed by XRPD, discoloration, possibly associated with decomposition was also observed (Table 1). Salt-screening experiments yielding a unique XRPD pattern were analyzed by HPLC-UV and were all determined to be primarily composed of degradants.
With the exception of the HBr salt, salt screening was unsuccessful in identifying further options for new forms of Compound 1 because of degradation. […] For example, solvent systems in which Compound 1 has limited solubility were chosen for formation of the HCl and sulfates salts to limit oxidation, while providing enough solubility to promote conversion to crystalline salts. However, this approach is time consuming and not favorable for large scale manufacturing methods.

[2] = Slurry in acetone/water (1:1 v/v), hydrate stability at water activity; conditions: aw=0.91, acetone/water 1:1 v/v, slurried one week at ambient
Description: Form D can also isolated from the amorphous bis-hydrogen bromide salt form of Compound 1 in a slurry experiment comprising acetone/water (1:1 v/v). For example, a saturated solution the amorphous bis-hydrogen bromide salt form om acetone/water (1:1 v/v) was slurried for one week at ambient and the solid was harvested to obtain Form D. The water activity (aw) of an equal volume mixture of acetone and water is 0.91. See SSCI internal report, Water Activity Calculations using UNIFAC Calculator, SR-20150515.01, dated Jul. 23, 2015. When solvent-free polymorphs are considered, the relative thermodynamic stability of two polymorphs is determined by the Gibbs free energy difference at a given temperature and pressure. However, when hydrate forms are considered, the water activity in the solvent contributes to the relative physical stability and thus, the resulting form. See Qu H, Louhi-Kultanen M, Kallas J. Solubility and stability of anhydrate/hydrate in solvent mixtures. Int J Pharm. 2006; 321:101-107 and Zhu H, Grant D J W. Influence of water activity in organic solvent+water mixtures on the nature of the crystallizing drug phase. 2. Ampicillin. Int J Pharm. 1996; 139:33-43.

[3] = Solubility in re-slurry solvents
[4] = Dynamic Vapor Sorption (DVS) moisture uptake

Molecule: CCS(=O)(=O)c1ccc(CNC(=O)c2cnc3c(c2)CN(C[C@H]2CC[C@H](C(F)(F)F)CC2)[C@H]3C(C)C)nc1 [Compound 1]
susceptibility to oxidation ([1]; particularly in solution): highly susceptible to oxidation

Molecule: CCS(=O)(=O)c1ccc(CNC(=O)c2cnc3c(c2)CN(C[C@H]2CC[C@H](C(F)(F)F)CC2)[C@H]3C(C)C)nc1 [Form D]
stability of the hydrate at water activity [2]: stable
solubility in isopropyl acetate/water mixture compared with heptane/water mixture [3]: greater
solubility in IPAc compared with n-heptane ([3]; re-slurry solvents): slightly higher
moisture uptake compared with the other solid forms ([4]; DVS isotherm plots, FIG. 16 vs FIGS. 4, 8, 12): significantly less moisture update; also recorded: significantly less than the other forms

Molecule: O=S(=O)(O)O [sulfate]
degradation during preparation [1]: less degradation than others

Molecule: adipic acid
composition of isolated salt-screening solid by HPLC-UV ([1]; salt/co-crystal screening of Compound 1): primarily degradants

More lines, now with the values ahead:

degradation during preparation [1]: did not degrade during preparation
weight change (moisture uptake) ([4]; DVS isotherm, FIG. 16): ≤ 5%
Molecule: CCS(=O)(=O)c1ccc(CNC(=O)c2cnc3c(c2)CN(C[C@H]2CC[C@H](C(F)(F)F)CC2)[C@H]3C(C)C)nc1 [bis-hydrogen bromide salt]

degradation during preparation [1]: did not degrade during preparation
amount of water absorbed relative to the corresponding bis-hydrogen bromide form ([4]; DVS, FIGS. 8 and 16): about twice the amount of water
Molecule: Br.CCS(=O)(=O)c1ccc(CNC(=O)c2cnc3c(c2)CN(C[C@H]2CC[C@H](C(F)(F)F)CC2)[C@H]3C(C)C)nc1 [mono-hydrogen bromide salt]
